Patent publication US9828299B2, “Methods for rendering micellar coordination complexes safe for the treatment of plants and formulations for same” (Innovation Hammer LLC, priority 2012, dated 2017)

Assays:
[1] = Critical micelle concentration; type: physicochemical
Text: Ketoesters also are a source of metabolizable micellar nanoparticles for transepidermal transport; i.e., at or above the CMC of a ketoester. For example, when applied to a leaf at or above the CMC 6.48 mol % of the β-ketoester, EAA is an effective wetter and spreader of water-based solutions. This is particularly true of EAA when applied at CMC on leaves of green plants. Furthermore, by bringing the ketoester to CMC, other compounds in solution synergistically rise to CMC. For example, in the embodiments disclosed herein, physical characteristics of the CMC of the ketoester, MAA, are applied to create zinc depots.

Petunia = test: Effective foliar application dose of safened ketoester formulations (synergism EAA/cosolvent); type: in vivo
[2] = tested on: waxy foliar surfaces of oleander leaves; test: Effective spreading of water droplets on waxy foliar surfaces, determined visually; settings: oleander leaf, visual determination
Text: Experimental biology investigations show an exemplary synergism of EAA to random block copolymer (RBC) using the formulations of the invention to visually determine the effect of concentration of the compounds on the effective spreading of water droplets on waxy foliar surfaces of oleander leaves. The following is an exemplary effective spreading of water droplet on a waxy leaf based on EAA synergist: • Leaf Plant Type Effective water droplet spreading • RBC EAA RBC+EAA • Oleander 0.6% 1% 0.3%+0.86%

[3] = Solubility of ketoester coordination complex
Procedure: One suitable coordination complex may be made, for example, by dissolving 10 mg ferric nitrate nonahydrate, in 1 ml water with stirring at room temperature until the solution is clear with all crystals dissolved; to the aqueous iron solution, 1 ml MAA is added with rapid stirring for 5-50 minutes or more to allow formation of the coordination complex. […] Other compositions include the following: micellar ketoester-zinc-ketoester, Zn-MNP; and micellar ketoester-copper-ketoester, Cu-MNP.
A process for novel synthesis of an MNP from iron salt is as follows: The aqueous saturated solution of 1 g ferric chloride hexahydrate is dissolved in 10 ml EAA with rapid stirring for 1 minute or more to the formation of the coordination complex.

Row | Compound | CMC (critical micelle concentration) [1] [mol %] | effective foliar application dose (Petunia) [mM] | Effective water droplet spreading (concentration) [2] [%] | solubility in IPA ([3]; IPA) | solubility in water ([3]; water)
1 | CCOC(=O)CC(C)=O [EAA, ethyl acetoacetate] | 6.48 | 100 | 1 |  | 
2 | CCOC(=O)CC(C)=O.[Fe+3] [Fe-EAA, ferric(III)-ethyl acetoacetate] |  |  |  | soluble | insoluble
